Structures can show the parent of a compound that is named as a salt.
Key:
[1] = system: A2780 human ovarian cancer cells; assay: CellTiter Glo cell viability assay, A2780 cells
Description: (§1) Two types of human tumor cells were used in this investigation: BXPC3 human pancreatic cancer cells and A2780 human ovarian cancer cells. The BXPC3 cells were originally obtained from American Type Cell Culture (ATCC). The ovarian tumor cells were gifts from Roswell Park Cancer Institute, Buffalo, N.Y. All tumor cells were maintained at 37° C. in a humidified 5% CO2 atmosphere in T75 tissue culture flasks containing 20 mL of Roswell Park Memorial Institute (RPMI) 1640 containing 2 mM L-glutamine, 10% fetal bovine serum (FBS) and 1% penicillin and streptomycin (100 IU/mL penicillin and 100 μg/mL streptomycin). The tumor cells were split at a ratio of 1:5 every 4-5 days by trypsinization and resuspended in fresh medium in a new flask. Cells were harvested for experiments at 70-90% confluency.
(§2) CPI-613 (i.e., 6,8-bis(benzylthio)octanoic acid) stock solutions at concentrations of 8, 4, 2, 1.5 and 0.5 mM were prepared in the appropriate vehicles. The molar ratio of vehicle to CPI-613 was maintained at 8:1. The corresponding vehicle concentrations were 64, 32, 16, 12, and 4 mM respectively. A sixty-four mM aliquot of vehicle was dissolved in 10 mL of water. Next, 8 mM of CPI-613 was added and the mixture was stirred until a clear solution was obtained. […] A 5 μL aliquot of this stock solution was added to 95 μL of tumor cells in media. Upon dilution in the wells, the corresponding drug concentrations were 400, 200, 100, 75 and 25 μM respectively.
(§3) For the sodium salt and potassium salt form of CPI-613, 1 equivalent of CPI-613 solid was dissolved in water. Sixty-two mg of CPI-613 (0.00016 mol) was added to 10 mL of water, then 165 μL of 1M NaOH or KOH was added and stirred until a clear solution was obtained. This gave a 16 mM solution. The resulting 16 mM solution was then serially diluted, thereby providing 8 mM and 4 mM solutions of the CPI-613 salt form. For the ammonium salt, vehicle to drug ratio was maintained at 8:1 and the formulation was prepared using procedures analogous to those described above in Section 2 relating to preparation of CPI-613 formulations in different vehicles.
(§4) CPI-613 formulated in 1M triethanolamine (TEA) was used as an internal control during formulation screening. To prepare a 16 mM of working stock of CPI-613, 50 mg/mL of CPI-613 (128.66 mM of CPI-613 in 1M TEA) was diluted in complete cell culture media containing 10% FBS. That is, 310 μL of a 128.66 mM solution of CPI-613 in 1M TEA was added to 2.19 mL of cell culture media. This stock was further diluted serially in complete media to give 8 mM, 4 mM 2 mM, 1.5 mM and 0.5 mM working solutions. On the day of testing, 5 μL of this working solution was added to 95 μL of cell culture media (20 fold dilution) resulting final concentrations of 400, 200, 100, 75 and 25 μM CPI-613, respectively. The ratio of CPI-613 to TEA was maintained at 1:8 ratio at all times.
(§5) The cell viability of CPI-613 formulations formulated at a ratio of 1:8, CPI-613 to vehicle, was assessed by exposing the A2780 ovarian tumor cells and BXPC3 human pancreatic cancer cells to the following CPI-613 concentrations: 400 μM (3200 μM vehicle), 200 μM (1600 μM vehicle), 100 μM (800 μM vehicle), 75 μM (600 μM vehicle) and 25 μM (200 μM vehicle) The impact of corresponding vehicles at 3200, 1600 and 800 μM concentrations was also tested in tumor cells for cell viability. […] CPI-613 in TEA was used as an internal control. The tumor cells were treated for 24 hrs with the test article in serum-containing medium. After 24 hrs of treatment the number of viable tumor cells was determined.
(§6) The number of cells targeted for the study was 4×10^3 per well in 100 μL of medium. The actual number of cells were counted and seeded in the wells of a 96 well-plate. The cells were incubated for ˜24 hrs before addition of CPI-613.
(§7) For each cell line the concentrations of test articles or vehicles specified above was used.

[2] = system: BXPC3 human pancreatic cancer cells; assay: PI/Annexin Alexa Fluor 488 staining, FACS, type of cell death; type: cell-based; details: 300 μM of CPI-613; 24 hours
Description: Apoptotic cells will stain Annexin V positive but PI negative because the PI cannot cross the intact cell membrane. Necrotic cells will stain positive for both Annexin V and PI because the cell membrane is not intact.
BxPC3 human pancreatic cancer cells were used in this investigation. These tumor cells were originally obtained from American Type Cell Culture (ATCC, Manassas, Va.). […] Cells were split at a ratio of 1:10 every 2-3 days by trypsinization and resuspended in fresh medium in a new flask. Cells were harvested for experiments in the same way at 70-90% confluency.
2) A 1 mL aliquot of each test condition was added to corresponding well. Each treatment condition was run in duplicate. Cells were incubated for 24 hours with test conditions prior to PI/Annexin Staining.
3) After 24 hours, cells, including floating cells, with media were harvested and centrifuged at 1,400 RPM for 5 minutes.
4) For all samples the supernatant was aspired off, and the pellet was resuspended in 3 mL PBS and then centrifuged again at 1,400 RPM for 5 minutes, for a total of 2 washes.
Cells were incubated with PI/Annexin V for 8 minutes.
6) The reaction was stopped by adding 400 μL 1× Annexin V binding buffer.
7) Samples were then taken to FACS facility to be read on the FACS Scan Flow Cytometer.

[3] = system: BXPC3 human pancreatic cancer cells; assay: CellTiter Glo cell viability assay, BXPC3 cells
Description: as §1, §2, §3, §4, §5, §6, §7

[4] = salt formulation at 200 μM, 24 hrs
[5] = salt formulation at 400 μM, 24 hrs

In the case of `O=C(O)CCCCC(CCSCc1ccccc1)SCc1ccccc1` (stereo not drawn) [CPI-613 sodium salt], the “A2780 Cell Viability (alkali salt formulations)” value ([1]; CPI-613 200 μM, CPI-613 to base 1:1, 24 hrs) was “++++ (tumor cell viability of >10% up to 30%)”, the viability at 25 µM ([1]; Homo sapiens, A2780, 24 h, read-out: A2780 Cell Viability (alkali salt formulations), CPI-613 25 μM, CPI-613 to base 1:1) was 70 to 95% and the viability at 75 µM ([1]; Homo sapiens, A2780, 24 h, read-out: A2780 Cell Viability (alkali salt formulations), CPI-613 75 μM, CPI-613 to base 1:1) was 70 to 95%. The viability at 100 µM ([1]; Homo sapiens, A2780, 24 h, read-out: A2780 Cell Viability (alkali salt formulations), CPI-613 100 μM, CPI-613 to base 1:1) was 70 to 95%, the viability at 400 µM ([1]; Homo sapiens, A2780, 24 h, read-out: A2780 Cell Viability (alkali salt formulations), CPI-613 400 μM, CPI-613 to base 1:1) was under 10% and the “cell kill in A2780 cells” value [1, 4] was about 65%. The “cell kill in A2780 cells” value [1, 5] was “all the cells were killed”, the “type of cell death (apoptosis or necrosis)” value [2] was “higher number of cells in the state of apoptotic death versus the number of cells in the state of necrotic death” and the “BXPC3 Cell Viability (alkali salt formulations)” value ([3]; CPI-613 75 μM, CPI-613 to base 1:1, 24 hrs) was “+ (tumor cell viability of >95%)”. The viability at 25 µM ([3]; Homo sapiens, BXPC-3, 24 h, read-out: BXPC3 Cell Viability (alkali salt formulations), CPI-613 25 μM, CPI-613 to base 1:1) was over 95%, the viability at 100 µM ([3]; Homo sapiens, BXPC-3, 24 h, read-out: BXPC3 Cell Viability (alkali salt formulations), CPI-613 100 μM, CPI-613 to base 1:1) was 70 to 95% and the viability at 200 µM ([3]; Homo sapiens, BXPC-3, 24 h, read-out: BXPC3 Cell Viability (alkali salt formulations), CPI-613 200 μM, CPI-613 to base 1:1) was 30 to 70%. For the same compound, the viability at 400 µM ([3]; Homo sapiens, BXPC-3, 24 h, read-out: BXPC3 Cell Viability (alkali salt formulations), CPI-613 400 μM, CPI-613 to base 1:1) was under 10%, the “cell kill in BXPC3 cells” value [3, 4] was about 50% and the “cell kill in BXPC3 cells” value [3, 5] was “all the cells were killed”.
